Series [1] is described as follows: Determination of partition coefficients (octanol / phosphate buffer pH 7.4). Type of series: physicochemical. The conditions noted are these: for Partition Coefficient: octanol/phosphate buffer pH 7.4, samples 1-3. On the procedure: Octanol and phosphate buffer (pH 7.4) were saturated with a counter-solvent for 24 hours or more. A given amount of a naphthoquinone-based compound (Compound 1 of Table 1 below) was dissolved in the thus-saturated octanol, mixed with triple-distilled water and stirred using a magnetic stirrer at 200 rpm for 13 hours or more. Samples were taken, filtered through a 0.45 μm RC Membrane filter and diluted with methanol. The diluted sample materials were analyzed by HPLC. A partition coefficient versus an amount of Compound 1 was determined.

Series [2] in a line: Intestinal absorption, single-pass intestinal perfusion. The series is classed as in vivo, rats. How it is done: In order to determine intestinal absorption (%) of a naphthoquinone-based compound, a single-pass intestinal perfusion technique was carried out in internal organs of rats, including jejunum, ileum and large intestine. The steady-state intestinal effective permeability (Peff) can be expressed according to the following equation. Peff=[−Qin·ln(Cout/Cin)]/A • Peff: Steady-state intestinal effective permeability (cm/s) • Qin: Perfusion flow rate (0.4 mL/min) • Cin, Cout: Inlet and fluid-transport-corrected outlet solution concentrations • A: Mass transfer surface area within intestinal segment (2πrL), • r, L: Radius and length of intestinal segment The radius (r) and length (L) of the jejunum, ileum and large intestine used in experiments are as follows: (r: jejunum, 0.21 cm; ileum, 0.22 cm; large intestine, 0.23 cm, and L: 10 cm) The steady-state was confirmed by the ratio of the outlet to inlet concentrations (Cout/Cin) versus time. The steady-state is established when the Cout/Cin ratio of the naphthoquinone-based compound is maintained at a constant value (n=3, error bars with respect to S.D.). Residual amounts of the naphthoquinone-based compound in the above three intestinal organs were measured at different time points. The outlet steady-state concentration of the compound under perfusion was calculated. The results thus obtained are given in Table 4 and FIG. 2, respectively. The effective permeability was measured at 4 points of each intestinal tissue.

The conditions of series [3]: orally administered; cited from earlier work.

The structures appear in SMILES notation. Where “and” joins values, the source holds several entries; their conditions need not be identical. Equal entries are not always repeated.

Take `CC1(C)CCC2=C(O1)c1ccccc1C(=O)C2=O` [Compound 1]: in series [1], the “octanol-solubility higher than water-solubility” value is reported as 100 fold. Moreover, in series [1] (octanol/phosphate buffer pH 7.4, pH 7.4, average over all amounts and samples, read-out: average partition coefficient), the logD was found to be 2.3. For the same molecule, the “Partition Coefficient” value was 2.17 and 2.02 and 1.99 in series [1] (100 μg/mL); 2.40 and 2.20 and 2.24 in series [1] (200 μg/mL); 2.59 and 2.62 and 2.58 in series [1] (2000 μg/mL); 2.65 and 2.05 and 2.08 in series [1] (Excess). The average partition coefficient entry in series [1] (pH 7.4) is “* average partition coefficient: 2.299 (σ = 0.255)”. Further, the “Peff × 10^−5” value in series [2] (Duodenum) was 0.79 ± 0.33 10^−5 cm/s; in series [2] (Ileum) it was 5.15 ± 1.49 10^−5 cm/s; in series [2] (Jejunum), 2.37 ± 1.17 10^−5 cm/s; in series [2] (Large intestine), 7.82 ± 0.93 10^−5 cm/s.

For `C[C@H]1COC2=C1C(=O)C(=O)c1c2ccc2c1CCCC2(C)C` [cryptotanshinone], the absorption rate in series [3] is on record as 2.05%.

Values taken from US20100062065A1, “PHARMACEUTICAL COMPOSITION CONTAINING NAPHTHOQUINONE-BASED COMPOUND FOR INTESTINE DELIVERY SYSTEM” (MAZENCE INC., priority 2006, published 2010).
